Laboratory results as given in patent US20230024108A1, “ADENOSINE A2A RECEPTOR ANTAGONISTS” (Teon Therapeutics, Inc., priority 2019, published 2023).

Columns and labels:
human A2A AdoR = target: T1, human A2A AdoR (Homo sapiens, UniProt P29274); experiment: Adenosine receptor binding assay, A2A ([3H]-CGS-21680); conditions: membranes of HEK-293 cells expressing human A2A AdoR; read-out: hA2A IC50
T1 construct: purchased PerkinElmer RBHA2AM400UA
How it was run: (§1)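 Filtration binding on membranes: A2A in HEK-293 with 6 nM [3H]-CGS-21680, Tris pH 7.4, 2 h; A2B in HEK-293 with 8 nM [3H]-DPCPX, HEPES pH 7.0, 1 h; A1 in CHO-K1 with 1 nM [3H]-DPCPX, HEPES pH 7.4, 1 h; room temperature. 8-point dilutions; IC50 converted to Ki (Cheng–Prusoff).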

A1AdoR = target: T2, A1AdoR (Homo sapiens, UniProt P30542); experiment: Adenosine receptor binding assay, A1 ([3H]-DPCPX); conditions: ratio A1 vs A2A binding
T2 construct: purchased PerkinElmer ES-010-M400UA
T2 sequence (P30542 1-326): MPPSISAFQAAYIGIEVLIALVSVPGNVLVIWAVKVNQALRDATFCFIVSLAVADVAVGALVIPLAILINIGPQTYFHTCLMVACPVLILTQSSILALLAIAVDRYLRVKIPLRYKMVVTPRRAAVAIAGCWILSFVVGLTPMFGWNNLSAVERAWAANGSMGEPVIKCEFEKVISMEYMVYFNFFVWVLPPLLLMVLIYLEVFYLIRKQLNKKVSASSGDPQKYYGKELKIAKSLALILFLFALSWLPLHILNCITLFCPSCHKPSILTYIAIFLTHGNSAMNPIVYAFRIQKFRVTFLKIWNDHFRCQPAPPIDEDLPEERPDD
How it was run: as §1

phospho-CREB (pCREB) = experiment: Human whole blood phospho-CREB (pCREB) assay / modulation of pCREB in human immune cells; type: cell-based; conditions: agonist (NECA or CGS-21680)-stimulated human blood cells
Experimental: Fresh human blood samples are derived from healthy volunteers and processed in heparin tubes. 67.5 ul of whole blood is aliquoted to each well in a 96-well plate and incubated at 37° C. for 30 min. Testing compounds are diluted with DMSO to make 8-point 3-fold serial dilution and 3.5 ul (20×) is added to each well. Cells are incubated with the compounds at 37° C. for 30 min. NECA (5 uM) is then added to each well and cells are incubated for 30 min at 37° C. Following the stimulation, cells are transferred to a 96-well deep well plates and fixed with 1 ml/well of lyse/fix buffer (1×) (BD Biosciences #558049) with vigorous shake at 37° C. for 10 min. Cells are centrifuged at 600 g for 6 min and washed twice with PBS, followed by addition of 800 ul/well Perm buffer III (BD Biosciences #558050). Cells are then pelleted at 600 g for 6 min, washed with FACS buffer (PBS+0.2% BSA+1 mM EDTA) and stained for 40 min at room temperature in the dark with an antibody cocktail containing PE mouse anti-human CD3 (BD Biosciences #555333, 1 ul/well), FITC mouse anti-human CD4 (BD Biosciences #5555346, 1 ul/well), PerCP-Cy™5.5 mouse anti-human CD8 (BD Biosciences #565310, 1 ul/well) and phospho-CREB (Ser133) (87G3) Rabbit mAb (Alexa Fluor® 647 Conjugate, CST #14001, 0.5 ul/well). Cells are then washed twice with FACS buffer and acquired on a flow cytometer (Sony Cell Sorter SH800). Data were analyzed using FlowJo version 9. The level of CREB phosphorylation from unstimulated cells (Low control: LC) and NECA-stimulated cells (High control: HC) are determined as mean fluorescent intensity (MFI) in stimulated condition/mean fluorescent intensity in unstimulated condition. % Inhibition is calculated as (MFI of HC-MFI of assay well)/(MFI of HC-MFI of LC)×100%. Data are analyzed and IC50s calculated using GraphPad Prism 5 and the model “log(inhibitor) vs. response—Variable slope”.
The A2A receptor is known to mediate CREB phosphorylation.
Venous blood from healthy volunteers, all of whom signed an informed consent approved by the Ethics Committee (FOR—UIC-BV-050-01-01 ICF HBS HD Version 5.0), was obtained via ImmuneHealth (Centre Hospitalier Universitaire Tivoli, La Louviere,
15 Belgium). Peripheral blood cells were treated with A2AR agonists CGS-21680 or NECA (Sigma-Aldrich, Diegem, Belgium), and a serial dilution of compounds disclosed herein (all used stock solutions at 10 mM in DMSO). All dilutions were prepared in RPMI1640 medium (with UltraGlutamine; Lonza, Venders, Belgium), and cells were incubated with compounds in a 37° C. humidified tissue culture incubator with 5% CO2.
After stimulation, cells were fixed and permeabilized, followed by intracellular staining using mouse anti-human pCREB antibodies (Clone J151-21; BD Biosciences) at room temperature. Data were acquired using an LSRFortessa flow cytometer (BD Biosciences) and analyzed using FlowJo software (FlowJo, LLC, Ashland, Oregon).

human A2B AdoR = target: T3, human A2B AdoR (Homo sapiens, UniProt P29275); experiment: Adenosine receptor binding assay, A2B ([3H]-DPCPX); conditions: ratio A2B vs A2A binding
T3 construct: purchased PerkinElmer ES-013-M400UA
T3 sequence (P29275 1-332): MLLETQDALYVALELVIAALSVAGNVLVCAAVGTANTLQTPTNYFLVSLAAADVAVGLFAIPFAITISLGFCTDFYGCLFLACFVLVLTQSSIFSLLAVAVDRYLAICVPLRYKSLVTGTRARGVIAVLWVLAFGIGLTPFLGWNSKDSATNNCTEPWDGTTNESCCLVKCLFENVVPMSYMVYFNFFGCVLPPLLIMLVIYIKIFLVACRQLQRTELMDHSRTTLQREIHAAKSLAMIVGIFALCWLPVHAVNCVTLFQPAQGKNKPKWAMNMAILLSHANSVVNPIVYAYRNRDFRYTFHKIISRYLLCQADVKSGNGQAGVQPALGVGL
Experimental: Membranes prepared from CHO-K1 cells stably expressing Human AiAdoR (ES-010-M400UA), HEK-293 cells stably expressing human A2A AdoR (RBHA2AM400UA), HEK-293 cells stably expressing human A2B AdoR (ES-013-M400UA) and CHO-K1 cells stably expressing Human A3 AdoR (ES-012-M400UA) were purchased from PerkinElmer (Waltham, Mass., USA) and stored at −80° C. until use. Binding assays are performed using the radioligands. The final concentrations are as follows: [3H]-DPCPX (PerkinElmer, NET974001MC) at 1 nM for A1AdoR; [^3H]-CGS-21680 (PerkinElmer, NET1021250UC) at 6 nM for A2AAdoR, [3H]-DPCPX (PerkinElmer, NET974001MC) at 8 nM for A2BAdoR; [^3H]-HEMADO (ARC, Cat: ART1456) at 1 nM for A3AdoR. Testing compounds are diluted with DMSO to make 8-point 4-fold serial dilution. Nonspecific binding (Low control: LC) and total binding (High control: HC) are determined in the presence or absence of saturated cold ligand. Specific binding is calculated by subtracting nonspecific binding from total binding. All assays are performed in a final volume of 200 μl containing 1 μl of the test compound in DMSO, 100 μl of membrane preparation, and 99 μl of the radioligand in assay buffer (A1AdoR: 25 mM HEPES pH 7.4, 5 mM MgCl2, 1 mM CaCl2), 100 mM NaCl; A2AAdoR: 50 mM Tris HCl pH 7.4, 10 mM MgCl2, 1 mM EDTA; A2BAdoR: 50 mM HEPES pH 7.0, 5 mM MgCl2, 1 mM EDTA; A3AdoR: 25 HEPES pH 7.4, 10 mM MgCl2, 1 mM CaCl2), 0.5% BSA). The incubation is performed at room temperature with shaking at 300 rpm for 1 hour for A1AdoR, A2BAdoR and A3AdoR and 2 hours for A2AAdoR. After the incubation, the assay mixture is filtered through 96 GF/C filter plates (Perkin Elmer #6005174) using Perkin Elmer Filtermate Harvester, and then washed four times with ice-cold washing buffer (A1AdoR: 25 mM HEPES pH 7.4, 5 mM MgCl2, 1 mM CaCl2), 100 mM NaCl; A2AAdoR: 50 mM Tris HCl pH 7.4, 154 mM NaCl; A2BAdoR: 50 mM HEPES pH 6.5, 5 mM MgCl2, 1 mM EDTA, 0.2% BSA; A3AdoR: 50 mM Tris HCl pH 7.4). The filters are dried for 1 hour at 50° C. and [^3H] trapped on filter counted for radioactivity in Perkin Elmer Microscint 20 cocktail (#6013329) using Perkin Elmer MicroBeta2 Reader. The results are expressed as a percent inhibition of the control radioligand specific binding calculated using the following equation: % Inhibition=(1−(Assay well-Average_LC)/(Average_HC−Average_LC))×100%. Data are analyzed and IC50 is calculated using GraphPad Prism 5 and the model “log(inhibitor) vs. response—Variable slope”. The binding affinity of the compounds is determined by using the Cheng and Prusoff equation Ki=IC50/(1+[radioligand]/Kd).

T1 sequence (P29274 whole entry): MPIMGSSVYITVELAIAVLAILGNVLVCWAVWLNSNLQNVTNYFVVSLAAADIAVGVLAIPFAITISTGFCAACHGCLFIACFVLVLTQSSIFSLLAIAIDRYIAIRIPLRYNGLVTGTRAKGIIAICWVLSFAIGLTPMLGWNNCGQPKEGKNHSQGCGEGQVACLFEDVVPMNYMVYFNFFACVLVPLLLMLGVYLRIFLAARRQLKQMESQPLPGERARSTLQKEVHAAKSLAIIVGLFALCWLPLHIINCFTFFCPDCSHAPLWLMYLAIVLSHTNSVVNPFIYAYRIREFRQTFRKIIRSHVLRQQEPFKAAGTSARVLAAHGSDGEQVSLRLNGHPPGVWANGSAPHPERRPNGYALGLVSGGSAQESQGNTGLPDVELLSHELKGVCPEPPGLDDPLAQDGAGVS

| SMILES | IC50 (human A2A AdoR) | EC50 (phospho-CREB (pCREB)) | A2B/A2A Selectivity (human A2B AdoR) | A1/A2A Selectivity (A1AdoR) |
| --- | --- | --- | --- | --- |
| CNC(=O)c1cc2c(nc(N)n3nc(-c4ccccn4)nc23)n1CCN1CCN(c2cc(-c3ncco3)ccc2F)CC1 [5-amino-7-(2-(4-(2-fluoro-5-(oxazol-2-yl)phenyl)piperazin-1-yl)ethyl)-N-methyl-2-(pyridin-2-yl)-7H-pyrrolo[3,2-e][1,2,4]triazolo[1,5-c]pyrimidine-8-carboxamide] | ≤ 20 nM | > 100 nM | – | c (greater than 0 but less than or equal to 100) |
| CS(=O)(=O)NC(=O)COc1ccc(N2CCN(CCn3c(C#N)c(Cl)c4c3nc(N)n3nc(-c5ccccn5)nc43)CC2)cc1 | ≤ 20 nM | 20 to 100 nM | – | b (greater than 100 but less than or equal to 1000) |
| CNC(=O)c1c(C)c2c(nc(N)n3nc(-c4ccccn4)nc23)n1CCN1CCN(c2cc(-c3ncco3)ccc2F)CC1 | ≤ 20 nM | ≤ 20 nM | – | a (greater than 1000) |
| Cc1noc2cc(F)c(N3CCN(CCn4cnc5c4nc(N)n4nc(-c6ccccn6)nc54)CC3)cc12 [3-(2-(4-(6-fluoro-3-methylbenzo[d]isoxazol-5-yl)piperazin-1-yl)ethyl)-8-(pyridin-2-yl)-3H-[1,2,4]triazolo[5,1-i]purin-5-amine] | ≤ 20 nM | > 100 nM | – | b (greater than 100 but less than or equal to 1000) |
| CC#Cc1nc2c3ncn(CCN4CCN(c5cc(-c6ncco6)ccc5F)CC4)c3nc(N)n2n1 | ≤ 20 nM | 20 to 100 nM | – | a (greater than 1000) |
| COC(=O)c1c(C)c2c(nc(N)n3nc(-c4ccccn4)nc23)n1CCN1CCN(c2cc(-c3ncco3)ccc2F)CC1 | ≤ 20 nM | > 100 nM | – | a (greater than 1000) |
| Cc1c(C(N)=O)n(CCN2CCN(c3cc(-c4ncco4)ccc3F)CC2)c2nc(N)n3nc(-c4ccccn4)nc3c12 | ≤ 20 nM | ≤ 20 nM | – | a (greater than 1000) |
| Cc1cn(CCN2CCN(c3cc(-c4ncco4)ccc3F)CC2)c2nc(N)n3nc(-c4ccccn4)nc3c12 | ≤ 20 nM | 20 to 100 nM | – | c (greater than 0 but less than or equal to 100) |

More lines, main results first:

| IC50 (human A2A AdoR) | EC50 (phospho-CREB (pCREB)) | A2B/A2A Selectivity (human A2B AdoR) | SMILES | A1/A2A Selectivity (A1AdoR) |
| --- | --- | --- | --- | --- |
| ≤ 20 nM | 20 to 100 nM | a (greater than 1000) | NC(=O)c1cc2c(nc(N)n3nc(-c4ccccn4)nc23)n1CCN1CCN(c2cc(-c3ncco3)ccc2F)CC1 | b (greater than 100 but less than or equal to 1000) |
| ≤ 20 nM | > 100 nM | – | CS(=O)(=O)NC(=O)COc1ccc(N2CCN(CCn3c(C#N)cc4c3nc(N)n3nc(-c5ccccn5)nc43)CC2)cc1 [2-(4-(4-(2-(5-amino-8-cyano-2-(pyridin-2-yl)-7H-pyrrolo[3,2-e][1,2,4]triazolo[1,5-c]pyrimidin-7-yl)ethyl)piperazin-1-yl)phenoxy)-N-(methylsulfonyl)acetamide] | b (greater than 100 but less than or equal to 1000) |
| ≤ 20 nM | > 100 nM | a (greater than 1000) | Nc1nc2c(cc(C(=O)O)n2CCN2CCN(c3cc(-c4ncco4)ccc3F)CC2)c2nc(-c3ccccn3)nn12 [5-amino-7-(2-(4-(2-fluoro-5-(oxazol-2-yl)phenyl)piperazin-1-yl)ethyl)-2-(pyridin-2-yl)-7H-pyrrolo[3,2-e][1,2,4]triazolo[1,5-c]pyrimidine-8-carboxylic acid] | b (greater than 100 but less than or equal to 1000) |
| ≤ 20 nM | 20 to 100 nM | – | Cc1c(C(=O)N2CCC2)n(CCN2CCN(c3cc(-c4ncco4)ccc3F)CC2)c2nc(N)n3nc(-c4ccccn4)nc3c12 | b (greater than 100 but less than or equal to 1000) |
| ≤ 20 nM | > 100 nM | a (greater than 1000) | CC#Cc1nc2c3cc(C#N)n(CCN4CCN(c5ccc(OCCOC)cc5)CC4)c3nc(N)n2n1 | a (greater than 1000) |
| ≤ 20 nM | ≤ 20 nM | a (greater than 1000) | Cc1noc2cc(F)c(N3CCN(CCn4nc(Cl)c5c4nc(N)n4nc(-c6ccccn6)nc54)CC3)cc12 | b (greater than 100 but less than or equal to 1000) |
